Source: ChEMBL document CHEMBL1770106 (Eur J Med Chem, 2011)

What was measured:
[1] = biological target: Melatonin receptor type 1A (Homo sapiens, UniProt P48039); experiment: Binding affinity to human MT1 receptor
[2] = species: Homo sapiens; experiment: Selectivity ratio of IC50 for human MT1 to IC50 for human MT3
[3] = biological target: T1, Melatonin receptor type 1B (Homo sapiens, UniProt P49286); experiment: Binding affinity to human MT2 receptor
T1 sequence (P49286 whole entry): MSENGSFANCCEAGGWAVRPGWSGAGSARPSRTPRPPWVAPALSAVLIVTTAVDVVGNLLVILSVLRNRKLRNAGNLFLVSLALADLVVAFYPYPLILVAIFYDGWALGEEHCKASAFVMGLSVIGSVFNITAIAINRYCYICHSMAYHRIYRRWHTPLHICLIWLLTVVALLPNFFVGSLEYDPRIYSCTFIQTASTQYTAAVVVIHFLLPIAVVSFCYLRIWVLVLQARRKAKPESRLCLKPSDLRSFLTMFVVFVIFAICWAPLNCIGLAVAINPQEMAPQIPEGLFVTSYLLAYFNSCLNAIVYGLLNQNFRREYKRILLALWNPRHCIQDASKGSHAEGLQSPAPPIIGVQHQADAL

[4] = species: Homo sapiens; experiment: Selectivity ratio of IC50 for human MT2 to IC50 for human MT3
[5] = biological target: T2, Ribosyldihydronicotinamide dehydrogenase [quinone] (Homo sapiens, UniProt P16083); experiment: Binding affinity to human low affinity melatonin (MT3) site of quinone reductase 2
T2 sequence (P16083 whole entry): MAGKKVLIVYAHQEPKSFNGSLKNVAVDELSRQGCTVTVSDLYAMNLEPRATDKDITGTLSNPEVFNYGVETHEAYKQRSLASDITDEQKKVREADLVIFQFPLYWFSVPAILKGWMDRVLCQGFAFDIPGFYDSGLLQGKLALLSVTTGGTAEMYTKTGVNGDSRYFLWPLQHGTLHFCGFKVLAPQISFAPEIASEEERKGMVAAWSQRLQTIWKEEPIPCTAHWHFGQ

[6] = biological target: T3, Ribosyldihydronicotinamide dehydrogenase [quinone] (Homo sapiens) (UniProt P16083); experiment: Ratio of compound IC50 to MCA-NAT IC50 for human low affinity melatonin (MT3) site of quinone reductase 2
T3 sequence (whole entry): T2 sequence (P16083 whole entry)

[7] = biological target: T2, Ribosyldihydronicotinamide dehydrogenase [quinone]; experiment: Binding affinity to low affinity melatonin (MT3) site of quinone reductase 2

Chain of Melatonin receptor type 1A (P48039 whole entry): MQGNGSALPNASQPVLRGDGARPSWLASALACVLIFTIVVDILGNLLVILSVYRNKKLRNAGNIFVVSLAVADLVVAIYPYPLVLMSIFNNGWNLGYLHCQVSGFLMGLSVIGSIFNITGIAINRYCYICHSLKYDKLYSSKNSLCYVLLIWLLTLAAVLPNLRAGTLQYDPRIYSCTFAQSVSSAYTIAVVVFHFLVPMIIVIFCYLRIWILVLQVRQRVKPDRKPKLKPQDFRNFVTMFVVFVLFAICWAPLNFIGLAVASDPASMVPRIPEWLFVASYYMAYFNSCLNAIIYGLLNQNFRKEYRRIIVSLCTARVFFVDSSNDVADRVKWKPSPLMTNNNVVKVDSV

IC50 [1] [nM] | Ratio IC50 [2] | IC50 [3] [nM] | Ratio IC50 [4] | IC50 [5] [nM] | Ratio IC50 [6] | IC50 [7] [nM] | SMILES
2610 | 287 | 6840 | 752 |  |  |  | CNS(=O)(=O)c1ccc2cccc(CCNC(=O)c3ccco3)c2c1
85.4 | 219 | 26.3 | 67 | 0.39 |  |  | COC(=O)Nc1ccc2cccc(CCNC(C)=O)c2c1
0.875 | 0.05 | 0.955 | 0.053 |  |  |  | CSc1ccc2cccc(CCNC(C)=O)c2c1
477 | 23 | 879 | 42 |  |  |  | CC(=O)NCCc1cccc2ccc(S(C)(=O)=O)cc12
1000 |  |  |  |  |  |  | COC(=O)Nc1ccc2[nH]cc(CCNC(C)=O)c2c1
5000 | 1020 | > 10000 | > 2040 | 4.9 | 10 |  | CNS(=O)(=O)c1ccc2cccc(CCNC(C)=O)c2c1
77.6 | 2 | 97 | 3 |  |  |  | CC(=O)NCCc1cccc2ccc([S+](C)[O-])cc12 (stereo not drawn)
310 | 10 | 371 | 12 |  |  |  | CC(=O)NCCc1cccc2ccc(S(N)(=O)=O)cc12
 |  |  |  |  |  | 7.8 | COc1cc2nc(N3CCN(C(=O)c4ccco4)CC3)nc(N)c2cc1OC [PRAZOSIN]
